Source: article PMC11833175, “Synthesis, characterization, antimicrobial, cytotoxic and carbonic anhydrase inhibition activities of multifunctional pyrazolo-1,2-benzothiazine acetamides” (Beilstein Journal of Organic Chemistry, 2025)
≈ marks a conversion by molar mass, not a printed value. Where two headings read alike, the source gives them in different places.

What was measured:
[1] = tested on: susceptible S. aureus (ATCC 25923); experiment: Microbroth dilution assay (MIC90), susceptible S. aureus; format: cell-based, Staphylococcus aureus; details: for MIC90: Staphylococcus aureus, ATCC25923, 90% growth inhibition
Procedure: (§1) Microbroth dilution assays were performed for the determination of MIC (minimum inhibitory concentration, MIC90) values for compounds 7b and 7h against three different strains of Staphylococcus aureus: susceptible (ATCC 25923), methicillin-resistant (ATCC BAA-41), and multidrug-resistant (ATCC BAA-44).
(§2) The antimicrobial evaluation of the targeted compounds was carried out against five different pathogens including Staphylococcus aureus (susceptible, ATCC 25923; methicillin-resistant, ATCC BAA-41; multidrug-resistant, ATCC BAA-44), Escherichia coli ATCC 8739, and Candida albicans ATCC 90027. Reference antibiotics and final concentrations used as positive controls in these experiments were kanamycin (susceptible S. aureus, 50 μg), vancomycin (methicillin and multidrug-resistant S. aureus, 25 μg), ampicillin (E. coli, 50 μg), and amphotericin B (C. albicans, 25 μg). The final concentration of the tested compounds was 125 μg/mL for microbroth single-dose assays. Dimethyl sulfoxide was used at a final concentration of 0.1% as negative control. […] American type culture collection (ATCC, Manassas, VA, USA) has provided all microbial strains used in above experiments.

[2] = tested on: Candida albicans (ATCC 90027); experiment: Microbroth single-dose antimicrobial assay, C. albicans; format: cell-based; details: ATCC90027, single dose 125 μg/mL, C. albicans ATCC 90027, value (SD)
Procedure: (§3) Microbroth single dose antimicrobial assays were performed against different pathogens including susceptible Staphylococcus aureus (ATCC 25923), Escherichia coli (ATCC 8739), and Candida albicans (ATCC 90027). Pathogens were treated with 125 μg/mL of tested compounds in duplicate.
as §2
(§4) Antimicrobial Single-dose assay for compounds 7(a-n) against
(§5) S. aureus E. coli C. albicans
(§6) Figure S43: Graph showing results of antimicrobial single-dose microbroth assays of compounds 7a–n, dose of tested compounds = 125 μg/mL, control antibiotic s used: kanamycin = 50 μg/mL (Staphylococcus aureus ATCC 25923), ampicillin = 50 μg/mL (Escherichia coli ATCC 8739), and amphotericin B = 25 μg/mL (Candida albicans ATCC 90027). Dimethylsulfoxide ( DMSO) was used as the negative control at 1.25% […]
(§7) Table S1: Results of single-dose antimicrobial and cytotoxic assays for compounds 7a–n; dosage of tested compounds = 125 μg/mL; antibiotic control dosage (kanamycin = 50 μg/mL (Staphylococcus aureus ATCC 25923), ampicillin = 50 μg/mL (Escherichia coli ATCC 8739), and amphotericin B = 25 μg/mL (Candida albicans ATCC 90027).
(§8) For cytotoxic assays, dosage of tested compounds = 10 μM; dosage of mensacarcin […]
(§9) Percent survival / % Cell viability
(§10) Samples S. aureus E.coli (SD) C. albicans (SD) HCT-116 […]

[3] = molecular target: human carbonic anhydrase CA I (Homo sapiens, UniProt P00915); experiment: hCA inhibition, stopped-flow CO2 hydration method, CA I
Procedure: (§15) In vitro assessment of all targeted pyrazolobenzothiazine scaffolds for human carbonic anhydrase (hCA) inhibition was performed adopting a stopped-flow CO2 hydration method. The enzyme inhibition assays were carried out for four types of human CA isoforms: CA I, CA II, CA IX, and XII. […] Reason for the selection of these CA isoforms was to develop a comparative relationship for inhibition selectivity between CAs (IX, XII) attributed to tumour/cancer and other CAs (I, II). […] Analyses were carried out in-house using recombinant enzymes as described.

[4] = tested on: methicillin-resistant S. aureus (ATCC BAA-41); experiment: Microbroth dilution assay (MIC90), methicillin-resistant S. aureus; format: cell-based, Staphylococcus aureus; details: methicillin-resistant S. aureus ATCC BAA-41, 90% growth inhibition; for MIC90: Staphylococcus aureus, ATCC BAA-41 / MRSA, read-out: MIC90 MRSA
Procedure: as §1, §2

[5] = molecular target: human carbonic anhydrase CA II (Homo sapiens, UniProt P00918); experiment: hCA inhibition, stopped-flow CO2 hydration method, CA II; details: mean from three assays, errors ±5–10%
Procedure: as §15

[6] = tested on: Escherichia coli (ATCC 8739); experiment: Microbroth single-dose antimicrobial assay, E. coli; format: cell-based; details: E. coli ATCC 8739, value (SD); for percent survival at 125 µg/mL: ATCC8739, single dose 125 μg/mL
Procedure: as §3, §2, §4, §5, §6, §7, §8, §9, §10

[7] = tested on: human colon cancer cell line HCT-116 (ATCC CCL-247); experiment: Single-dose MTT cell viability assay; format: cell-based; details: 10 μM
Procedure: (§11) Single-dose MTT assays were performed for compounds 7a–n against the human colon cancer mammalian cell line (HCT-116, ATCC CCL-247) for evaluating their inhibition of mammalian cell metabolism. Solutions of the tested compounds were prepared in DMSO and cancer cells were treated with 10 μM doses of compounds using the apoptosis inducing standard mensacarcin (10 μM) as a positive control.
(§12) Single-dose MTT assays were performed for compounds 7a–n with the human colon cancer mammalian cell line (HCT-116, ATCC CCL-247) for evaluating the compounds’ inhibitory effects on cell viability. Stock solutions of compounds were prepared in DMSO and cancer cells were treated with 10 μM doses of each compound and mensacarcin (10 μM) as a positive control. MTT in 1X PBS was added for a final concentration of 0.5 mg/mL 48 hours post compound addition to each well. Post incubation at 37 °C was carried out for 2 h. After the removal of the growth media, purple formazan metabolic product was dissolved in DMSO. A Biotek Synergy reader (96-well plate) was used to take absorbance of all samples at 550 nm. Cell viability was calculated as the ability of the metabolically active cells to reduce tetrazolium salt MTT [3-(4,5-dimethylthiazolyl-2)-2,5-diphenyltetrazolium bromide]. Control metabolic activity shown by cells treated with 0.1% DMSO was set to 100% cell growth. […]
as §8, §9, §10
(§13) HCT-116 (Human Colorn cancer cell line) Single -dose assay for […]
(§14) Figure S44: Graph showing cell viability of compounds 7a–n against human colon carcinoma cell line (HCT-116, ATCC CCL-247), dose of tested compounds = 10 μM, dose of positive control (mensacarcin) = 10 μM.

[8] = Single-dose MTT cell viability assay; format: cell-based, human; details: human, HCT-116 cells (ATCC CCL-247), 48 h, 0.1% DMSO control = 100%, value (SD)
Procedure: as §11, §12, §8, §9, §10, §13, §14

[9] = molecular target: human carbonic anhydrase CA XII (Homo sapiens, UniProt O43570); experiment: hCA inhibition, stopped-flow CO2 hydration method, CA XII; details: mean from three assays, errors ±5–10%
Procedure: as §15

[10] = tested on: Staphylococcus aureus (ATCC 25923); experiment: Microbroth single-dose antimicrobial assay, susceptible S. aureus; format: cell-based; details: single dose 125 μg/mL; for percent survival of S. aureus at 125 µg/mL: Staphylococcus aureus, ATCC25923, S. aureus ATCC 25923, value (SD); for antibacterial activity against susceptible S. aureus (in words): duplicate
Procedure: as §3, §2, §4, §5, §6, §7, §8, §9, §10

[11] = tested on: multidrug-resistant S. aureus (ATCC BAA-44); experiment: Microbroth dilution assay (MIC90), multidrug-resistant S. aureus; format: cell-based, Staphylococcus aureus; details: multidrug-resistant S. aureus ATCC BAA-44, 90% growth inhibition; for MIC90: Staphylococcus aureus, ATCCBAA44, read-out: MIC90 MDRSA
Procedure: as §1, §2

[12] = molecular target: human carbonic anhydrase CA IX (Homo sapiens, UniProt Q16790); experiment: hCA inhibition, stopped-flow CO2 hydration method, CA IX; details: mean from three assays, errors ±5–10%
Procedure: as §15

[13] = read-out: Ki for targeted CAs, I, mean from three assays, errors ±5–10%
[14] = read-out: Ki for targeted CAs, II
[15] = read-out: Ki for targeted CAs, XII
[16] = read-out: Ki for targeted CAs, IX

human carbonic anhydrase CA XII, sequence (O43570 25-354): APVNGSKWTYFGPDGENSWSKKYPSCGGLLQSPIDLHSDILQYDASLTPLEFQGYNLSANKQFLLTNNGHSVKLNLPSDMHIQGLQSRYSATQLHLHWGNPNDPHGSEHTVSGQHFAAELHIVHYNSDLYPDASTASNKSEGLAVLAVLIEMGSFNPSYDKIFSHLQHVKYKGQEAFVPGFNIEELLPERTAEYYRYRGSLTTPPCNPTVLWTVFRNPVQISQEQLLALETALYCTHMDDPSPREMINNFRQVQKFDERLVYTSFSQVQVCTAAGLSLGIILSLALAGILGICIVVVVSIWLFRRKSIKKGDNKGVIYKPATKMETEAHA
human carbonic anhydrase CA I, sequence (P00915 whole entry): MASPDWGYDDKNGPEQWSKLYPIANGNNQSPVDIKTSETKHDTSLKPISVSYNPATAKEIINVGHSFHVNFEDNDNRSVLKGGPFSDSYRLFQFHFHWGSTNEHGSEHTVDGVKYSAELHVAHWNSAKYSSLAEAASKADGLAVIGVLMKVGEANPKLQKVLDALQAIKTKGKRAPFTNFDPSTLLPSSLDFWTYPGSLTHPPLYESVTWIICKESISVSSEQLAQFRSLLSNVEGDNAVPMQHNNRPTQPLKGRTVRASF

Ki [3]	Ki ([5]; Ki for targeted CAs, II)	Ki ([9]; Ki for targeted CAs, XII)	Ki ([12]; Ki for targeted CAs, IX)	Ki [3, 13]	Ki [5, 14]	Ki [9, 15]	Ki [12, 16]	SMILES	percent survival at 125 µg/mL [2]	percent survival at 125 µg/mL [6]	viability at 48 h, 10 µM [8]	percent survival of S. aureus at 125 µg/mL [10]	other results
> 100 µM	95.2 µM	91.7 µM	90.8 µM	–	–	–	–	CN1c2c(O)nn(CC(=O)Nc3ccc(Br)cc3)c2-c2ccccc2S1(=O)=O [Compound 7h]	65.1%	> 100%	> 100%	16.7%	MIC90 SA ([1]; 90% growth inhibition): 8 µg/mL (≈ 17.3 µM); MIC90 [1]: 8 µg/mL (≈ 17.3 µM); MIC90 [4]: 8 µg/mL (≈ 17.3 µM); MIC90 MRSA [4]: 8 µg/mL (≈ 17.3 µM); effect on HCT-116 cell viability (in words) [7]: no significant decrease in mammalian cell viability; antibacterial activity against susceptible S. aureus (in words) [10]: significant antibacterial activity; MIC90 [11]: 8 µg/mL (≈ 17.3 µM); MIC90 MDRSA [11]: 8 µg/mL (≈ 17.3 µM)
> 100 µM	> 100 µM	> 100 µM	> 100 µM	–	–	–	–	COc1ccc(NC(=O)COc2nn(CC(=O)Nc3ccc(OC)cc3)c3c2N(C)S(=O)(=O)c2ccccc2-3)cc1 [Compound 7j]	99.5%	> 100%	> 100%	> 100%	–
–	–	–	–	> 100 µM	84.6 µM	90.2 µM	> 100 µM	CN1c2c(O)nn(CC(=O)Nc3ccc(Cl)cc3)c2-c2ccccc2S1(=O)=O [Compound 7a]	–	–	–	–	–
–	–	–	–	> 100 µM	> 100 µM	> 100 µM	> 100 µM	CN1c2c(OCC(=O)Nc3ccc([N+](=O)[O-])cc3)nn(CC(=O)Nc3ccc([N+](=O)[O-])cc3)c2-c2ccccc2S1(=O)=O [Compound 7i]	–	–	–	–	–

The next lines start with the compound.

SMILES	Ki [3]	Ki ([5]; Ki for targeted CAs, II)	Ki ([9]; Ki for targeted CAs, XII)	Ki ([12]; Ki for targeted CAs, IX)	Ki [3, 13]	Ki [5, 14]	Ki [9, 15]	Ki [12, 16]	percent survival at 125 µg/mL [2]	percent survival at 125 µg/mL [6]	viability at 48 h, 10 µM [8]	percent survival of S. aureus at 125 µg/mL [10]	other results
CN1c2c(O)nn(CC(=O)Nc3cccc(Cl)c3)c2-c2ccccc2S1(=O)=O [Compound 7b]	> 100 µM	90.9 µM	77.4 µM	72.9 µM	–	–	–	–	87%	95.3%	88.9%	37.2%	MIC90 [1]: 16 µg/mL (≈ 38.2 µM); MIC90 [4]: 16 µg/mL (≈ 38.2 µM); effect on HCT-116 cell viability (in words) [7]: no significant decrease in mammalian cell viability; antibacterial activity against susceptible S. aureus (in words) [10]: significant antibacterial activity; MIC90 [11]: 16 µg/mL (≈ 38.2 µM)
CN1c2c(O)nn(CC(=O)NCc3ccccc3)c2-c2ccccc2S1(=O)=O [Compound 7f]	–	–	–	–	> 100 µM	90.3 µM	79.1 µM	> 100 µM	–	–	–	–	–
CC1(C)S[C@@H]2[C@H](NC(=O)[C@H](N)c3ccccc3)C(=O)N2[C@H]1C(=O)O [Ampicillin, ampicillin, reference compound]	–	–	–	–	–	–	–	–	–	–	–	–	percent survival at 50 µg/mL ([6]; ATCC8739, antibiotic control 50 μg/mL): 4.16%
